Laboratory results reported in the supplement of paper PMC7341893.

Assays:
Assay in all cases: growth (OD600) normalised to reference wells; higher = more growth / less inhibition
GPI15_HIP = tested on: GPI15_HIP
Experimental: (§1)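 S. cerevisiae strains (wild type, SPT14 point-mutant knock-ins, HIP heterozygous and HOP homozygous deletion strains) were grown in rich medium in 96-well plates with 12-point serial dilutions of jawsamycin or clotrimazole (DMSO normalised to 2%). Growth was read as OD600 and normalised within each dilution series (NormOD, % growth). Wells set exactly to 100 are normalisation references and are left out.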

GPI1_HIP = tested on: GPI1_HIP
Experimental: as §1

GPI2_HIP = tested on: GPI2_HIP
Experimental: as §1

HO_HIP = tested on: HO_HIP
Experimental: as §1

SPT14(H106Y) = tested on: SPT14(H106Y)
Experimental: as §1

SPT14(T114A) = tested on: SPT14(T114A)
Experimental: as §1

SPT14(V76F) = tested on: SPT14(V76F)
Experimental: as §1

SPT14(WT) = tested on: SPT14(WT)
Experimental: as §1

SPT14_HIP = tested on: SPT14_HIP
Experimental: as §1

Clc1ccccc1C(c1ccccc1)(c1ccccc1)n1ccnc1 [Clotrimazole]
growth [%]
Conditions	GPI1_HIP	GPI2_HIP	GPI15_HIP	HO_HIP	SPT14(H106Y)	SPT14(T114A)	SPT14(V76F)	SPT14(WT)	SPT14_HIP
0.0599525 µM	–	–	–	–	87.7	89.1	–	86.2	–
0.1259 µM	–	–	–	–	–	–	101	–	–
0.125900179 µM	99.71	101.2	100.7	101	60.9	72	–	69.1	101.3
0.26439 µM	99.45	99.573	99.95	98.3	6.75	33.3	99.4	8.87	99.746
0.55522 µM	92.9	94.15	94.01	94.61	7.18	13.3	104	9.82	91.5
1.16596 µM	10.1	14.5	7.93	8.24	4.48	12.5	97.7	6.88	11.7
2.44852 µM	4.4	2.59	3.69	1.95	5.03	15.9	95.9	6.32	3.86
5.14189 µM	1.82	1.15	1.3	0.55	3.41	12	98.2	4.16	1.8
10.79796998 µM	0.134	0.0555	-0.36	-0.231	1.98	3.16	–	3	0.0343
10.798 µM	–	–	–	–	–	–	4.41	–	–
22.6757 µM	-0.448	-0.447	-0.813	-0.622	2.09	3.52	0.641	3.43	-0.803
47.619 µM	-0.6398	-0.447	-0.839	-0.564	-0.417	0.134	-1.36	-0.421	-0.679
100 µM	1.31	1.041	0.998	1.08	-0.409	0.19	-0.859	-0.41	1.11
